Assay results from US7666875B2, “Hydantoin compounds” (Eisai R&D Management Co., Ltd., priority 2005, dated 2010).

molecular target: T1, human T-bet (Homo sapiens, UniProt Q9UL17); assay: HEKT-bet-luc assay (T-bet dependent luciferase reporter in engineered HEK cells); assay type: cell-based; details: Table 4; HEKT-bet cells, compound 24 hours; IC50 normalized to reference ER-213038; read-out: IC50
T1 construct: expressed in transfected cells; host or cells: engineered HEK cells (HEKT-bet)
T1 sequence (Q9UL17 1-535): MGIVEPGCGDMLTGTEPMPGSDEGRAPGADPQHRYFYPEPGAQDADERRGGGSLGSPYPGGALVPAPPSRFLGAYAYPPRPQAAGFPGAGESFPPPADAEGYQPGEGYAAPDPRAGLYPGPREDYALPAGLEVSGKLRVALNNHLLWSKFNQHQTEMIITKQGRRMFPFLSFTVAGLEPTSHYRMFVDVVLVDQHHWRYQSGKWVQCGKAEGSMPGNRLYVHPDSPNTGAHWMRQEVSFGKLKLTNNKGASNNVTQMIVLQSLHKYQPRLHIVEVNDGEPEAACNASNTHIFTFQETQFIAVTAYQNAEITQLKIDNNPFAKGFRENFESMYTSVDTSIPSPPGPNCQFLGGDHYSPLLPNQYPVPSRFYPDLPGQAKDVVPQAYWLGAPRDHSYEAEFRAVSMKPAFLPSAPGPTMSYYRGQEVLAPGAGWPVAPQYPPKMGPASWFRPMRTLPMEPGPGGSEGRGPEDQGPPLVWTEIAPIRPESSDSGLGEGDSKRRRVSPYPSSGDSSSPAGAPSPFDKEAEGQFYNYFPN
Procedure: HEKT-bet-luc assay: This assay measures a T-bet dependent reporter (luciferase) activity in engineered HEK cells that express a human T-bet and a T-box responsive element driving luciferase reporter. HEKT-bet cells were plated at 2×10^4/well in 96-well plate and compound was added into cell culture for 24 hours. Luciferase activity was measured by adding 50 μl of Steady-Glo reagent (Promega) and samples were read in Victor V reader (PerkinElmer). The IC50 values were calculated utilizing a maximum value corresponding to the amount of luciferase in the absence of a test compound and a minimum value corresponding to a test compound value obtained at maximum inhibition.
Determination of Normalized HEKT-bet IC50 values: Compounds were assayed in microtiter plates. Each plate included a reference compound which was ER-213038. The un-normalized IC50 value for a particular compound was divided by the IC50 value determined for the reference compound in the same microtiter plate to provide a relative potency value. The relative potency value was then multiplied by the established potency of the reference compound to provide the normalized HEKT-bet IC50 value. […] The IC50 values provided herein were obtained using this normalization method.

SMILES | IC50 [µM]
COc1cccc(CN2C(=O)N(Cc3ccncc3)C3(CCN(Cc4cccc5ccccc45)CC3)C2=O)c1 [Example 138] | 0.125
COCCN1C(=O)N(Cc2cccc(OC)c2)C(=O)C12CCN(Cc1cc(C)c(C)cc1C)CC2 [Example 139] | 0.125
COc1cccc(CN2C(=O)N(Cc3ccc(-n4cccn4)cc3)C3(CCN(Cc4cccc5ccccc45)CC3)C2=O)c1 [Example 140] | 0.127
COCCN1C(=O)N(Cc2cccc(OC)c2)C(=O)C12CCN(Cc1c(C)cccc1C)CC2 [Example 141] | 0.13
CCOc1ccc2ccccc2c1CN1CCC2(CC1)C(=O)N(Cc1cccc(OC)c1)C(=O)N2CCOC [Example 142] | 0.13
COc1cc(CN2CCC3(CC2)C(=O)N(C/C=C/c2ccccc2)C(=O)N3Cc2ccccn2)cc(OC)c1 [Example 143] | 0.134
COc1cc(CN2CCC3(CC2)C(=O)N(Cc2cc(OC)cc(OC)c2)C(=O)N3C)cc(OC)c1 [Example 144] | 0.134
COc1cc(CN2CCC3(CC2)C(=O)N(Cc2cc(OC)cc(OC)c2)C(=O)N3Cc2ccncc2)cc(OC)c1 [Example 145] | 0.139
COCCN1C(=O)N(Cc2cccc(OC)c2)C(=O)C12CCN(Cc1cc(OC)cc(OC)c1F)CC2 [Example 146] | 0.142
COCCN1C(=O)N(Cc2cccc(OC)c2)C(=O)C12CCN(Cc1ccc3c4c(cccc14)CC3)CC2 [Example 147] | 0.142
COc1cccc(CN2C(=O)N(C)C3(CCN(Cc4cccc5ccccc45)CC3)C2=O)c1 [Example 148] | 0.143
COCCN1C(=O)N(Cc2cccc(OC)c2)C(=O)C12CCN(Cc1cc(C)ccc1C)CC2 [Example 150] | 0.147
COCCN1C(=O)N(Cc2ccc3ccccc3c2)C(=O)C12CCN(Cc1cc(OC)cc(OC)c1)CC2 [Example 151] | 0.148
COCCN1C(=O)N(C/C=C/c2cccc3ccccc23)C(=O)C12CCN(Cc1ccccc1)CC2 [Example 152] | 0.149
COCCN1C(=O)N(CCCOc2ccccc2)C(=O)C12CCN(Cc1cccc3ccccc13)CC2 [Example 153] | 0.151
COCN1C(=O)N(Cc2cc(OC)cc(OC)c2)C(=O)C12CCN(Cc1cc(OC)cc(OC)c1)CC2 [Example 154] | 0.153
COc1cccc(CN2C(=O)N(Cc3ccc(-n4cccn4)cc3)C3(CCN(Cc4cc(OC)cc(OC)c4)CC3)C2=O)c1 [Example 155] | 0.159
COCCN1C(=O)N(Cc2cccc(OC)c2)C(=O)C12CCN(Cc1cccc(-c3ccc(O)cc3)c1)CC2 [Example 156] | 0.159
COCCN1C(=O)N(Cc2cccc(OC)c2)C(=O)C12CCN(Cc1cc3ccccc3c3ccccc13)CC2 [Example 157] | 0.161
CCc1ccccc1CN1CCC2(CC1)C(=O)N(Cc1cccc(OC)c1)C(=O)N2CCOC [Example 158] | 0.164
COCCN1C(=O)N(Cc2cccc(OC)c2)C(=O)C12CCN(Cc1cccc(Br)c1)CC2 [Example 159] | 0.166

SMILES | IC50 [µM]
COCCN1C(=O)N(Cc2cccc(OC)c2)C(=O)C12CCN(Cc1c3ccccc3cc3ccccc13)CC2 [Example 160] | 0.168
COCCN1C(=O)N(Cc2cccc(OC)c2)C(=O)C12CCN(Cc1ccc3ccccc3c1)CC2 [Example 161] | 0.169
COCCN1C(=O)N(Cc2ccc3ccccc3c2)C(=O)C12CCN(Cc1cccc(C)c1)CC2 [Example 162] | 0.172
COCCN1C(=O)N(Cc2cccc(F)c2)C(=O)C12CCN(Cc1cc(OC)cc(OC)c1)CC2 [Example 163] | 0.182
COCCN1C(=O)N(Cc2cccc(OC)c2)C(=O)C12CCN(Cc1c(C)c(C)c(C)c(C)c1C)CC2 [Example 164] | 0.182
COCCN1C(=O)N(C/C=C/c2ccccc2F)C(=O)C12CCN(Cc1ccccc1)CC2 [Example 165] | 0.183
COCCN1C(=O)N(Cc2ccc3ccccc3c2)C(=O)C12CCN(Cc1cccc(OC)c1)CC2 [Example 166] | 0.184
CCN1C(=O)N(Cc2cccc(OC)c2)C(=O)C12CCN(Cc1cc(OC)cc(OC)c1)CC2 [Example 167] | 0.187
CCN1C(=O)N(Cc2cccc(OC)c2)C(=O)C12CCN(Cc1cccc3ccccc13)CC2 [Example 168] | 0.19
COCCN1C(=O)N(Cc2cccc(OC)c2)C(=O)C12CCN(Cc1cccc3c1Cc1ccccc1-3)CC2 [Example 169] | 0.19
COCCN1C(=O)N(C/C=C/c2ccccc2)C(=O)C12CCN(Cc1ccccc1)CC2 [Example 171] | 0.191
COCCN1C(=O)N(Cc2cccc(OC)c2)C(=O)C12CCN(Cc1csc3ccccc13)CC2 [Example 172] | 0.193
COc1cccc(CN2C(=O)N(Cc3cccnc3)C3(CCN(Cc4cccc5ccccc45)CC3)C2=O)c1 [Example 173] | 0.196
COc1cccc(CN2CCC3(CC2)NC(=O)N(C/C=C/c2ccccc2)C3=O)c1 [Example 174] | 0.198
COCCN1C(=O)N(Cc2cccc(OC)c2)C(=O)C12CCN(Cc1c3ccccc3c(C)c3ccccc13)CC2 [Example 175] | 0.2
COCCN1C(=O)N(Cc2cccc(OC)c2)C(=O)C12CCN(Cc1cccc(N3CCCC3)c1)CC2 [Example 176] | 0.203
CCN1C(=O)N(Cc2ccc3ccccc3c2)C(=O)C12CCN(Cc1cc(OC)cc(OC)c1)CC2 [Example 177] | 0.205
COCCN1C(=O)N(Cc2cccc(OC)c2)C(=O)C12CCN(Cc1cccc(OC)c1)CC2 [Example 178] | 0.205
COc1cccc(CN2C(=O)N(Cc3ccccn3)C3(CCN(Cc4cc(OC)cc(OC)c4)CC3)C2=O)c1 [Example 179] | 0.215
COCCN1C(=O)N(Cc2cccc(OC)c2)C(=O)C12CCN(Cc1cc3c(OC)cccc3cc1OC)CC2 [Example 180] | 0.223
COCCN1C(=O)N(Cc2cccc(OC)c2)C(=O)C12CCN(Cc1cccc(-c3ccccc3)c1)CC2 [Example 181] | 0.225

SMILES | IC50 [µM]
O=C1N(C/C=C/c2ccccc2)C(=O)C2(CCN(Cc3cccc4ccccc34)CC2)N1Cc1ccc(-n2cccn2)cn1 [Example 182] | 0.226
COCCN1C(=O)N(Cc2cc(OC)cc(OC)c2)C(=O)C12CCN(Cc1cc(OC)cc(OC)c1)CC2 [Example 183] | 0.23
CN1C(=O)N(C/C=C/c2ccccc2)C(=O)C12CCN(Cc1cccc3ccccc13)CC2 [Example 184] | 0.235
O=C1N(C/C=C/c2ccccc2)C(=O)C2(CCN(Cc3cccc4ccccc34)CC2)N1Cc1cccnc1 [Example 185] | 0.235
COCCN1C(=O)N(Cc2cccc(OC)c2)C(=O)C12CCN(Cc1c(C)cc(C)cc1C)CC2 [Example 186] | 0.236
COCCN1C(=O)N(Cc2ccc3ccccc3c2)C(=O)C12CCN(Cc1cccc3ccccc13)CC2 [Example 187] | 0.243
COCCN1C(=O)N(CCCc2ccccc2)C(=O)C12CCN(Cc1cc(OC)cc(OC)c1)CC2 [Example 188] | 0.246
COCCN1C(=O)N(Cc2cccc(N(C)C)c2)C(=O)C12CCN(Cc1ccccc1)CC2 [Example 189] | 0.247
COCCN1C(=O)N(C/C=C/c2ccc(C)cc2)C(=O)C12CCN(Cc1ccccc1)CC2 [Example 190] | 0.251
COCCN1C(=O)N(Cc2cccc(OC)c2)C(=O)C12CCN(Cc1cccc3ccccc13)CC2 [Example 191] | 0.253
COCCN1C(=O)N(Cc2cccc(OC)c2)C(=O)C12CCN(Cc1c(C)c(C)cc(C)c1C)CC2 [Example 192] | 0.26
COCCN1C(=O)N(Cc2cccc(OC)c2)C(=O)C12CCN(Cc1ccccc1C)CC2 [Example 193] | 0.261
COCCN1C(=O)N(Cc2cccc(OC)c2)C(=O)C12CCN(Cc1ccc(N(C)C)c3ccccc13)CC2 [Example 194] | 0.262
COCCN1C(=O)N(CCCOc2ccccc2)C(=O)C12CCN(Cc1cc(OC)cc(OC)c1)CC2 [Example 195] | 0.264
COCCN1C(=O)N(Cc2ccccc2)C(=O)C12CCN(Cc1cc(OC)cc(OC)c1)CC2 [Example 196] | 0.268
CCN1C(=O)N(Cc2cccc(OC)c2)C(=O)C12CCN(Cc1ccc3ccccc3c1)CC2 [Example 197] | 0.27
COCCN1C(=O)N(Cc2cccc(OC)c2)C(=O)C12CCN(Cc1ccc(C)cc1C)CC2 [Example 199] | 0.279
COc1cccc(CN2C(=O)N(CCO)C3(CCN(Cc4cc(OC)cc(OC)c4)CC3)C2=O)c1 [Example 200] | 0.285
COc1cc(CN2CCC3(CC2)C(=O)N(C/C=C/c2ccccc2)C(=O)N3Cc2cccc3cccnc23)cc(OC)c1 [Example 201] | 0.288

same assay, conditions: reference compound used for normalization on each microtiter plate; read-out: established potency of the reference compound (HEKT-bet IC50)

SMILES | IC50 [µM]
COCCN1C(=O)N(Cc2cccc(OC)c2)C(=O)C12CCN(Cc1cccc(OC)c1)CC2 [Example 170] | 0.19
